Like-named read-outs stand apart in the source and are kept apart here.
What was measured:
[1] = system: electrically stimulated left atrium of rats; experiment: positive inotropic action on electrically stimulated left atrium in vitro; design: species or system rat; details: for EC40: Rattus norvegicus, Column B, negative logarithm of EC40pot in mol/l, 40% increase in contraction force, read-out: -lg[EC40 pot.] left atrium (converted)
Description: The positive inotropic action was tested in vitro on the electrically stimulated left atrium of rats (l.a.).
The positive inotropic action of the compounds was tested in vitro on the electrically stimulated left atrium of rats.
Isometric contractions (HSE force sensor K-30; Watanabe recorder, Linear Corder Mark 5) of isolated, left atria from rats (.male., 250-300 g) in an organ bath (10 ml, Tyrode nutrient solution, 31° C., gassing with carbogen, initial tension of the organs 0.25 g) under electrical stimulation (HSE stimulator, 7 V, 3 ms, 2 Hz) were recorded. […] The particular increase in the contraction force is expressed in % of the starting value before administration of the substance. The concentration of the test substance which potentiates the contraction force of the atrium by 40% compared with the starting value [EC40pot. mol/l], expressed by the negative logarithm of the [EC40pot mol/l]: -lg[EC40pot ] serves as a measure of the cardiotonic activity.

[2] = system: chain of tracheal rings of guinea pigs; experiment: relaxing action on chain of tracheal rings in vitro (bronchospasmolytic action); design: species or system guinea pig; details: for EC50: Cavia porcellus, Column A, negative logarithm of EC50 in mol/l, 50% of maximum relaxation by (-)isoprenaline, read-out: -lg[EC50] trachea (converted)
Description: The relaxing action of the 6-aryl-3[2H]pyridazinones I has been tested in vitro on a chain of tracheal rings (Tr.) of guinea pigs. […] The quotient of [EC40pot. ]left atrium and [ED50 ]trachea serves as a measure of the organ-selective activity.
The bronchospasmolytic action of the compounds on the chain of tracheal rings of the guinea pig was tested in vitro:
Four parallel chains of tracheal rings, each consisting of 6 individual rings, of guinea pigs(.male. and .female., 430-600 g) in an organ bath [5 ml, Krebs-Henseleit solution with added phentolamine (10^-5 mol/l), 37° C., initial tension of the organs 2 g, gassing with carbogen] develop a stable, spontaneous tonic contraction after about 20 to 30 minutes. […] Over a period of 20 to 30 minutes, a complete dose/action curve of the test substance is thus obtained. The particular relaxation is expressed as a percentage fraction of the maximum relaxation which can be achieved by administration of (-)isoprenaline (10^-6 mol/1). The concentration of the test substance which causes 50% of the maximum relaxation which can be achieved, expressed by the negative logarithm of the EC50 mol/l: -lg[EC50 ]is a measure of the bronchodilator activity.

[3] = system: histamine-induced bronchospasm; experiment: inhibition of histamine-induced bronchospasm in anesthetized guinea pigs; format: in vivo, guinea pig
Description: A method for simultaneously recording pharmacodynamic and toxic effects on internal sensitive receptors, on the respiration and the cardiovascular system of guinea pigs was used [U. Kilian, E. Muller, E. Ch. […] To characterize the bronchospasm induced by histamine (0.09-0.18 μmol /kg i.v.), the maximum flow rate of the respiratory air during inspiration (Vmaxi) and expiration (Vmaxe) and the breath volume (BVi) were measured. A histamine spasm before administration of the substance was compared with several histamine spasms after administration of the substance. The test substances were administered intravenously (i.v.) and/or intrajejunally (i.j.). 5 to 10 animals were used per measurement, and the arithmetic mean was calculated from the results.

[4] = system: acetylcholine-induced bronchospasm; experiment: protective effect against acetylcholine-induced bronchospasm in conscious guinea pigs; format: in vivo, guinea pig; details: for Doubling of the latency period / Tripling of the latency period: 100 μmol/kg p.o.; for Tripling of the latency period: figure in parentheses
Description: The figure in parentheses indicates the number out of 10 animals in which the latency period more than tripled.
The latency period is to be understood to be the time from the start of acetylcholine-atomization until clear signs of asthma appeared.
The time from the start of atomization to the onset of clear respiratory exertion (in certain circumstances, hypoxic convulsion in the lateral position) is measured, and is denoted the latency period.
The test substance is administered orally by gavage (standard dose 100 μmol/kg, volume 1 ml of 4% strength methocel suspension in 0.9% strength sodium chloride solution/kg). […] Prolongation of the latency period to at least twice its length is regarded as a protective effect.

[5] = system: right ventricle of guinea pigs; experiment: heart function dP/dtmax, right ventricle of anesthetized guinea pigs; format: in vivo, guinea pig
Description: The effect of the substances on the contractility of the heart of guinea pigs is tested on animals (.male., 400 to 1000 g) under urethane anesthesia. The change in pressure in the right ventricle of the heart is measured with a tip catheter introduced through the right jugular vein and the maximum rate of pressure rise (dP/dtmax) is determined from this. The heart rate is derived from the pressure waves. […] The test substances were administered intravenously. 5-7 animals were used for each measurement, and the arithmetic mean was calculated from the results.

[6] = system: guinea pig hearts isolated and perfused by the Langendorff method; experiment: left-ventricular pressure and heart rate in isolated perfused Langendorff hearts; details: for Emax: Cavia porcellus
Excerpt: After the animals have been sacrificed by a blow to the neck and exsanguination through the carotid arteries, the thoracic cavity is opened, and the aorta is exposed and looped up with a thread. A cannula, which is attached by tubing to the apparatus from which the nutrient solution slowly drops, is introduced in the direction of the heart and the heart is, quickly after removal from the thorax, connected to the perfusion apparatus. A balloon probe, connected to a Statham pressure sensor, is advanced through a cut through the left atrium into the left ventricle, and is provided with an initial pressure of 40 mm Hg. […] The nutrient solution flowing freely from the coronary sinus into the right atrium is measured with a flow […]) and, together with the change in the left-ventricular pressure and the heart rate determined from this, is recorded on a Watanabe recorder. The substances are administered in a volume of 0.1 ml of nutrient solution, in the dosage indicated in Tab.

[7] = toxicity studies, mouse p.o.; details: in vivo, po; Column F; mouse p.o.; 7 days observation; read-out: Approximate LD50
Description: The toxicity studies are carried out on female NMRI mice (body weight 23-30 g). The animals (5 animals per dose) receive food and water ad libitum. Various doses of the substances are administered once as a suspension in methocel via a gavage. The period of observation lasts 7 days. The tolerated dose (TD), that is to say the highest dose at which as yet none of the animals die, is determined by observation. The average lethal dose (LD50), that is to say the dose at which 50% of the animals die, is determined from the dose/action curve by means of linear regression.

In the case of `COc1cc(-c2ccc(=O)[nH]n2)ccc1OCC(C)C` [Serial No. 16, 6-(3-methoxy-4-isobutoxyphenyl)-3[2H]pyridazinone], the “[EC40 pot.] theophylline / [EC40 pot.] substance” value ([1]; Column E, left atrium) is reported as 251, the EC40 [1] is reported as 1.66 µM and the EC50 [2] is reported as 0.288 µM. The “[EC40 pot.] left atrium / [EC50] trachea” value ([2]; Column C, measure of organ-selective activity) was 5.8, the “[EC50] theophylline / [EC50] substance” value ([2]; Column D, trachea) was 468 and the “inhibition of histamine-induced bronchospasm, TVi” value (“inhibition … TVi” below) ([3]; 20 μmol/kg i.v., 2 min) was 153%. The “inhibition of histamine-induced bronchospasm, Vmaxe” value (“inhibition … Vmaxe” below) ([3]; 20 μmol/kg i.v., 2 min) was 145%, the “inhibition of histamine-induced bronchospasm, Vmaxi” value (from here on “inhibition … Vmaxi”) ([3]; 20 μmol/kg i.v., 2 min) was 154% and the “inhibition … TVi” value ([3]; 20 μmol/kg i.v., 10 min) was 66%. For the same molecule, the “inhibition … Vmaxe” value ([3]; 20 μmol/kg i.v., 10 min) was 63%, the “inhibition … Vmaxi” value ([3]; 20 μmol/kg i.v., 10 min) was 73% and the “inhibition … TVi” value ([3]; 20 μmol/kg i.v., 20 min) was 46%. The “inhibition … Vmaxe” value ([3]; 20 μmol/kg i.v., 20 min) was 60%, the “inhibition … Vmaxi” value ([3]; 20 μmol/kg i.v., 20 min) was 48% and the “inhibition … TVi” value ([3]; 20 μmol/kg i.v., 30 min) was 28%. For the same molecule, the “inhibition … Vmaxe” value ([3]; 20 μmol/kg i.v., 30 min) was 33%, the “inhibition … Vmaxi” value ([3]; 20 μmol/kg i.v., 30 min) was 34% and the “inhibition … TVi” value ([3]; 20 μmol/kg i.v., 60 min) was 13%. For the same molecule, the “inhibition … Vmaxe” value ([3]; 20 μmol/kg i.v., 60 min) was 16%, the “inhibition … Vmaxi” value ([3]; 20 μmol/kg i.v., 60 min) was 15% and the “inhibition of histamine-induced bronchospasm compared with theophylline” value ([3]; result in words) was “significantly more effective than theophylline”. The “Doubling of the latency period” value ([4]; 30 min) was 8 N of 10 animals, the “Tripling of the latency period” value ([4]; 30 min) was 5 N of 10 animals and the “protective effect compared with theophylline” value ([4]; result in words) was “greater protective effect”.
In the case of `Cn1c(=O)c2[nH]cnc2n(C)c1=O` [Theophylline, theophylline, reference compound], the “Percentage change in dP/dtmax” value ([5]; 10 μmol/kg i.v., 0-10 min (Maximum)) is reported as 59%, the “Percentage change in dP/dtmax” value ([5]; 10 μmol/kg i.v., 10 min) is reported as 12% and the “Percentage change in dP/dtmax” value ([5]; 10 μmol/kg i.v., 30 min) is reported as 20%. For the same molecule, the “Percentage change in dP/dtmax” value ([5]; 30 μmol/kg i.v., 0-10 min (Maximum)) was 92%, the “Percentage change in dP/dtmax” value ([5]; 30 μmol/kg i.v., 10 min) was 53% and the “Percentage change in dP/dtmax” value ([5]; 30 μmol/kg i.v., 30 min) was 67%. For the same molecule, the “Percentage change in dP/dtmax” value ([5]; 100 μmol/kg i.v., 0-10 min (Maximum)) was 147%, the “Percentage change in dP/dtmax” value ([5]; 100 μmol/kg i.v., 10 min) was 135% and the “Percentage change in dP/dtmax” value ([5]; 100 μmol/kg i.v., 30 min) was 112%. The Emax ([6]; after 3000 nMol, read-out: Emax left-ventricular pressure) was 16%, the Emax ([6]; at Emax, 3000 nMol, read-out: Percentage increase in heart rate at Emax) was 5% and the EC20 left-ventricular pressure ([6]; dose which leads to a 20% increase in left ventricular pressure) was “is not reached”. For the same molecule, the EC40 [1] was 417 µM, the “inhibition … TVi” value ([3]; 20 μmol/kg i.v., 2 min) was 45% and the “inhibition … Vmaxe” value ([3]; 20 μmol/kg i.v., 2 min) was 51%. For the same molecule, the “inhibition … Vmaxi” value ([3]; 20 μmol/kg i.v., 2 min) was 49%, the “inhibition … TVi” value ([3]; 20 μmol/kg i.v., 10 min) was 5% and the “inhibition … Vmaxe” value ([3]; 20 μmol/kg i.v., 10 min) was 10%. For the same molecule, the “inhibition … Vmaxi” value ([3]; 20 μmol/kg i.v., 10 min) was 11%, the “inhibition … TVi” value ([3]; 20 μmol/kg i.v., 20 min) was 5% and the “inhibition … Vmaxe” value ([3]; 20 μmol/kg i.v., 20 min) was 9%. The “inhibition … Vmaxi” value ([3]; 20 μmol/kg i.v., 20 min) was 8%, the “inhibition … TVi” value ([3]; 20 μmol/kg i.v., 30 min) was 10% and the “inhibition … Vmaxe” value ([3]; 20 μmol/kg i.v., 30 min) was 13%. For the same molecule, the “inhibition … Vmaxi” value ([3]; 20 μmol/kg i.v., 30 min) was 8%, the “inhibition … TVi” value ([3]; 60 μmol/kg i.j., 2 min) was 7% and the “inhibition … Vmaxe” value ([3]; 60 μmol/kg i.j., 2 min) was 8%. The “inhibition … Vmaxi” value ([3]; 60 μmol/kg i.j., 2 min) was 6%, the “inhibition … TVi” value ([3]; 60 μmol/kg i.j., 10 min) was 35% and the “inhibition … Vmaxe” value ([3]; 60 μmol/kg i.j., 10 min) was 33%. For the same molecule, the “inhibition … Vmaxi” value ([3]; 60 μmol/kg i.j., 10 min) was 42%, the “inhibition … TVi” value ([3]; 60 μmol/kg i.j., 20 min) was 41% and the “inhibition … Vmaxe” value ([3]; 60 μmol/kg i.j., 20 min) was 41%. For the same molecule, the “inhibition … Vmaxi” value ([3]; 60 μmol/kg i.j., 20 min) was 46%, the “inhibition … TVi” value ([3]; 60 μmol/kg i.j., 30 min) was 37% and the “inhibition … Vmaxe” value ([3]; 60 μmol/kg i.j., 30 min) was 40%. For the same molecule, the “inhibition … Vmaxi” value ([3]; 60 μmol/kg i.j., 30 min) was 45%, the “inhibition … TVi” value ([3]; 60 μmol/kg i.j., 45 min) was 33% and the “inhibition … Vmaxe” value ([3]; 60 μmol/kg i.j., 45 min) was 33%. For the same molecule, the “inhibition … Vmaxi” value ([3]; 60 μmol/kg i.j., 45 min) was 39%, the “inhibition … TVi” value ([3]; 60 μmol/kg i.j., 60 min) was 37% and the “inhibition … Vmaxe” value ([3]; 60 μmol/kg i.j., 60 min) was 32%. The “inhibition … Vmaxi” value ([3]; 60 μmol/kg i.j., 60 min) was 39%, the “inhibition … TVi” value ([3]; 60 μmol/kg i.v., 2 min) was 78% and the “inhibition … Vmaxe” value ([3]; 60 μmol/kg i.v., 2 min) was 79%. The “inhibition … Vmaxi” value ([3]; 60 μmol/kg i.v., 2 min) was 95%, the “inhibition … TVi” value ([3]; 60 μmol/kg i.v., 10 min) was 27% and the “inhibition … Vmaxe” value ([3]; 60 μmol/kg i.v., 10 min) was 27%. The “inhibition … Vmaxi” value ([3]; 60 μmol/kg i.v., 10 min) was 38%, the “inhibition … TVi” value ([3]; 60 μmol/kg i.v., 20 min) was 16% and the “inhibition … Vmaxe” value ([3]; 60 μmol/kg i.v., 20 min) was 15%. For the same molecule, the “inhibition … Vmaxi” value ([3]; 60 μmol/kg i.v., 20 min) was 19%, the “inhibition … TVi” value ([3]; 60 μmol/kg i.v., 30 min) was 16% and the “inhibition … Vmaxe” value ([3]; 60 μmol/kg i.v., 30 min) was 15%. For the same molecule, the “inhibition … Vmaxi” value ([3]; 60 μmol/kg i.v., 30 min) was 18%, the “inhibition … TVi” value ([3]; 60 μmol/kg i.v., 60 min) was 3% and the “inhibition … Vmaxe” value ([3]; 60 μmol/kg i.v., 60 min) was 8%. For the same molecule, the “inhibition … Vmaxi” value ([3]; 60 μmol/kg i.v., 60 min) was 7%, the “Doubling of the latency period” value ([4]; 30 min) was 6 N of 10 animals and the “Tripling of the latency period” value ([4]; 30 min) was 4 N of 10 animals. For the same molecule, the “Doubling of the latency period” value ([4]; 45 min after administration) was 3 N of 10 animals and the “Tripling of the latency period” value ([4]; 45 min after administration) was 2 N of 10 animals.
`COc1cc(-c2ccc(=O)[nH]n2)ccc1OC(C)C` [compound 1] showed an EC40 [1] of 22.4 µM, an EC50 [2] of 1.91 µM and an LD50 at 168 h [7] of 270 mg/kg.
